{
  "source": "patent US8835447B2",
  "about": "“Method for treating androgen receptor positive cancers” (priority 2009, dated 2014)",
  "system": "CWR22R cells",
  "experiment": "Cell cycle distribution by propidium iodide staining",
  "type": "cell-based, human",
  "settings": "propidium iodide FACS",
  "method": "Analysis of cell cycle distribution was based on staining of DNA content by propidium iodide. 10^5 cells were removed from culture dishes using trypsin, washed with PBS and resuspended in 300 μl 3% BSA in PBS, followed by addition of […] 70% ethanol. Cells were kept at −20° C. for several hours and then stained with 10 μg/ml propidium iodide in the presence of 30 μg/ml RNase A for 2 hrs at 37° C. DNA content was assessed using a FACS Calibur instrument and CellQuest software (Becton Dickinson, Franklin Lakes, N.J.).\nTo test this possibility, we assessed the cell cycle distribution of CWR22R cells treated with both categories of compounds. […] Therefore, different subsets of compounds inhibiting AR-dependent transcription in androgen-independent PCa cells cause either growth arrest or apoptosis in these cells. Whether a compound causes growth arrest or apoptosis is not determined by the potency of the compound as an inhibitor of AR-dependent transcription (i.e., FIG. 2B).",
  "data": [
    {"smiles": "CCCn1c2ccccc2c2cc(C(C)=O)ccc21", "note": "[c52]", "values": [
      {"measurement": "cells with sub-G1 DNA content (apoptotic)", "result": "appearance of cells with sub-G1 DNA content"}
    ]}
  ]
}
